Source: PMC8835884 (2022)
Blank lines part the entries; values can stand above or below the molecule they belong to.

Columns and labels:
[1] = test system: TQ3/Cy3-fl (RNA, riboswitch, aminoallyl-U conjugated to TQ3 at 24; Cy3-C at 55) GGGAAGAUAUAAUCCUAAUGAUAUGGUUUGGGAGUUUCUACCAAGAGCCUUAAACUCUUGAUUAUCUUCUCUGUCGCUUUAUCCCAAAUUUUAUAAAGAGAAGACUCAUGAAU; assay: Cy3-TQ3 FRET quenching titration, steady-state fluorescence; details: Mg2+ not stated
[2] = test system: TQ3/Cy3-fl (RNA, riboswitch, aminoallyl-U conjugated to TQ3 at 24; Cy3-C at 55) GGGAAGAUAUAAUCCUAAUGAUAUGGUUUGGGAGUUUCUACCAAGAGCCUUAAACUCUUGAUUAUCUUCUCUGUCGCUUUAUCCCAAAUUUUAUAAAGAGAAGACUCAUGAAU; assay: Cy3-TQ3 FRET quenching titration, steady-state fluorescence, sigmoidal fit; details: 100 mM KCl, 2 mM MgCl2; 10 mM HEPES, pH 7.5; 0.4 μM RNA; apparent
[3] = test system: TQ3/Cy3-apt (RNA, riboswitch, aminoallyl-U conjugated to TQ3 at 24; Cy3-C at 55) GGGAAGAUAUAAUCCUAAUGAUAUGGUUUGGGAGUUUCUACCAAGAGCCUUAAACUCUUGAUUAUCUUCCC; assay: as above; details: 100 mM KCl, 2 mM MgCl2; 10 mM HEPES, pH 7.5; 0.4 μM RNA; apparent

- binding ([1]; tested up to 1 mM guanine): no
SMILES: Nc1nc2[nH]cnc2c(=O)[nH]1

- KD [2]: 15.826 ± 0.287 µM
- KD [3]: 61.833 ± 0.621 µM
SMILES: Nc1ncnc2[nH]cnc12

- binding ([1]; tested up to 1 mM ATP): no
SMILES: Nc1ncnc2c1ncn2[C@@H]1O[C@H](COP(=O)(O)OP(=O)(O)OP(=O)(O)O)[C@@H](O)[C@H]1O
